Assay results from patent EP0196005A1, “Pyridazinones, their preparation and pharmaceutical compositions containing them” (Dr. Karl Thomae GmbH, priority 1985, dated 1986).

Legend:
narkotisierten Katze = test: Blood pressure lowering and positive inotropic effect in the anaesthetised cat; format: in vivo; conditions: 0,1 mg/kg i.v., mean of 3 cats; for Wirkungsdauer (Halbwerts-zeit): anaesthetised cats; for Blutdruck änderung in mmHg: second value of the printed pair (presumably diastolic), pentobarbital-anaesthetised cats
Experimental: 2. Bestimmung der blutdrucksenkenden und positiv inotropen Wirkung an der narkotisierten Katze:
Die Untersuchungen wurden an Katzen durchgeführt, die mit Pentobarbital-Natrium (40 mg/kg i.p.) narkotisiert waren. Die Tiere atmeten spontan. Der arterielle Blutdruck wurde in der Aorta abdominalis mit einem Statham-Druckwandler (P 23 Dc) gemessen. Für die Erfassung der positiv inotropen Wirkung wurde mit einem Kathetertipmanometer (Milliar PC-350 A) der Druck in der linken Herzkammer gemessen. Daraus wurde der Kontraktilitätsparameter dp/dtmax mittels eines Analogdifferenzierers gewonnen. Die zu untersuchende Substanz wurden in eine Vena femoralis injiziert Als Lösungsmittel diente Polydiol 200. Die Substanz wurde an 3 Katzen geprüft, Dosis 0,1 i.v..

Thrombozytenaggregation = test: Platelet aggregation according to Born and Cross (collagen-induced, photometric); format: cell-based, gesunder Versuchspersonen; conditions: collagen-induced aggregation in platelet-rich plasma of healthy subjects
Experimental: 1. Bestimmung der Thrombozytenaggregation nach Bom und Cross (J. Physiol. 170, 397 (1964)):
Die Thrombozytenaggregation wurde in plättchenreichem Plasma gesunder Versuchspersonen gemessen. Hierbei wurde der Verlauf der Abnahme der optischen Dichte nach Zugabe von handelsüblichem Collagen der Firma Sigma, St. Louis/USA, welches 1 mg Collagen-Fibrillen pro ml enthält, photometrisch gemessen und registriert. Aus dem Neigungswinkel der Dichtekurve wurde auf die Aggregationsgeschwindigkeit (Vmax) geschlossen. Der Punkt der Kurve, bei dem die größte Lichtdurchlässigkeit vorlag, diente zur Berechnung der "optical density" (O.D.). Zur maximalen Aggregationsauslösung werden ca. 0,01 ml der Collagenlösung zu 1 ml plättchenreichem Plasma gegeben.

Structure (SMILES)	Wirkungsdauer (Halbwerts-zeit) (narkotisierten Katze)	Blutdruck änderung in mmHg (narkotisierten Katze)	EC50 (Thrombozytenaggregation)
CCOC(=O)N1CCN(c2nc3ccc(C4=NNC(=O)CC4C)cc3o2)CC1 (stereo not shown) [C, 5-Methyl-6-[2-(4-carbäthoxy-1-piperazinyl)-benzoxazol-6-yl]-4,5-dihydro-3(2H)-pyridazinon]	12 Minuten	-50 mmHg	
CC1CC(=O)NN=C1c1ccc2[nH]c(N3CCCC3)nc2c1 (stereo not shown) [D]	13 Minuten	-17 mmHg	
CC1CC(=O)NN=C1c1ccc2nc(-n3ccnc3)[nH]c2c1 (stereo not shown) [F, 5-Methyl-6-[2-(1-imidazolyl)-benzimidazol-5-yl]-4,5-dihydro-3(2H)-pyridazinon]	8 Minuten	-20 mmHg	
CC1CC(=O)NN=C1c1ccc2oc(-n3ccnc3)nc2c1 (stereo not shown) [A, 5-Methyl-6-[2-(1-imidazolyl)-benzoxazol-5-yl]-4,5-dihydro-3(2H)-pyridazinon]	25 Minuten	-45 mmHg	0.031 µM
CC1CC(=O)NN=C1c1ccc2[nH]c(N3CCSCC3)nc2c1 (stereo not shown) [E, 5-Methyl-6-[2-(4-thiomorpholino)-benzimidazol-5-yl]-4,5-dihydro-3(2H)-pyridazinon]	10 Minuten	-12 mmHg	
CC1CC(=O)NN=C1c1ccc2nc(N3CCNCC3)oc2c1 (stereo not shown) [B, 5-Methyl-6-[2-(1-piperazinyl)-benzoxazol-6-yl]-4,5-dihydro-3(2H)-pyridazinon]	12 Minuten	-43 mmHg	
